From US6630488B1, “Quinolizinones as integrin inhibitors” (Biochem Pharma, Inc., priority 1998, dated 2003) come the findings set out here.

Test [1] deals with T1, placental αvβ3 (Homo sapiens, UniProt P05106+P06756).
T1 construct: purified active GP IIb-IIIa (Calbiochem) or olacental αvβ3 at 0.5 μg/ml; from tissue; host or cells: placenta
In words: Fibrinogen binding to immobilized αvβ3. The following applies: biotinylated-fibrinogen 10 nM, immobilized placental αvβ3; read-out: IC50 values for the fibrinogen binding assay αvβ3. On the procedure:
(§1) Nonbound fibrinogen was removed by five washes with binding buffer. Avidin conjugated to alkaline phosphatase (Sigma), diluted in binding buffer, was added and incubated for two hours at 37° C. The plates were washed five times with binding buffer, and after addition of the substrate PNPP (Pierce), the enzyme activity was measured by the absorbance at 405 nm.

The target in test [2] is T2, GP IIb-IIIa (αIIbβ3) (Homo sapiens, UniProt P05106+P08514).
T2 construct: purchased Calbiochem
T2 sequence (P08514 32-887 limits assumed): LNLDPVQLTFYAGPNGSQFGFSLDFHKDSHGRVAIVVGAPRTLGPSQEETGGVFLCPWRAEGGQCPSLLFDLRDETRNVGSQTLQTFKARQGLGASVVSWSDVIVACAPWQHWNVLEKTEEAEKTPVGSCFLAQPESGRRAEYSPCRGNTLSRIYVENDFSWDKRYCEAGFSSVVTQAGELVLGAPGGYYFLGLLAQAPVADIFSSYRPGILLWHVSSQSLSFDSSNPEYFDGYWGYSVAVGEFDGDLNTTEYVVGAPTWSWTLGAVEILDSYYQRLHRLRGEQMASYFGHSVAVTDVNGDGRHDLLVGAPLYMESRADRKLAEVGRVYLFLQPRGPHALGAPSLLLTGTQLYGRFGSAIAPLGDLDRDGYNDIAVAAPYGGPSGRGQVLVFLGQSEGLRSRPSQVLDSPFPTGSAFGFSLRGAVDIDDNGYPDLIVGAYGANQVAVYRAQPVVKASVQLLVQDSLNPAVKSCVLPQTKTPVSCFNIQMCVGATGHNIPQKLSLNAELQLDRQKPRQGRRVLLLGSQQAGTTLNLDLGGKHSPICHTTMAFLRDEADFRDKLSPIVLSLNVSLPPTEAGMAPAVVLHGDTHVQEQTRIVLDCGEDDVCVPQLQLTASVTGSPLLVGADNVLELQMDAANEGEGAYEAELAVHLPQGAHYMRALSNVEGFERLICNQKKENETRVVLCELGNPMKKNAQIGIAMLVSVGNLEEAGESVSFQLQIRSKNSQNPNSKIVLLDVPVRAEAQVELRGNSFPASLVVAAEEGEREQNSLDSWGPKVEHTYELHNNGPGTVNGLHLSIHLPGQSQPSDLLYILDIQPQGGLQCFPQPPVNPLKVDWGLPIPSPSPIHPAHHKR
T2 sequence (P08514 891-1039 partner limits assumed): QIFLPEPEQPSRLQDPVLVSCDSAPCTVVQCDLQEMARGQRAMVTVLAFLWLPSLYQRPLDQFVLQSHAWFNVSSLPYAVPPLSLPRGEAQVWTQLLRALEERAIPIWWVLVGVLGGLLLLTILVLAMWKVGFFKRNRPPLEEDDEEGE
T2 sequence (P05106 27-788): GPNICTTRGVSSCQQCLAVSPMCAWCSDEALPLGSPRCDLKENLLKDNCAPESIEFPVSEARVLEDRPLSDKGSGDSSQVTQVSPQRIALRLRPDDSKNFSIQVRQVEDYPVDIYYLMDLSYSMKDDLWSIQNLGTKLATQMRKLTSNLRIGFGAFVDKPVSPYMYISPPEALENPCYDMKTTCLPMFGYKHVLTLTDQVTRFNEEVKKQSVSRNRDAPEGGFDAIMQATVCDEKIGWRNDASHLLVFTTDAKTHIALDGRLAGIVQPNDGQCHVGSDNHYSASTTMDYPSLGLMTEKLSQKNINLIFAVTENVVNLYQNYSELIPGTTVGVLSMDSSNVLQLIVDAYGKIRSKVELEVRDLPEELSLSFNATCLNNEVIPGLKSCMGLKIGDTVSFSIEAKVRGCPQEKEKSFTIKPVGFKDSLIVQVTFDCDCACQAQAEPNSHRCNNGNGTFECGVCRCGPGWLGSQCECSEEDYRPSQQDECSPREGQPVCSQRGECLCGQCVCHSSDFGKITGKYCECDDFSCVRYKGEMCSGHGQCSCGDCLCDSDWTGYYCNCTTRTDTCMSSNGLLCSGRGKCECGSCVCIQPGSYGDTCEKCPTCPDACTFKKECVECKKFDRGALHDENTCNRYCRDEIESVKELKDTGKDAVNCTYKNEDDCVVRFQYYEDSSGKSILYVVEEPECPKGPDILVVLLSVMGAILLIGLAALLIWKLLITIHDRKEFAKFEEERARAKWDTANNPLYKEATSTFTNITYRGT
In words: Fibrinogen binding to immobilized GP IIb-IIIa (αIIbβ3). The conditions noted are these: biotinylated-fibrinogen 10 nM, immobilized GP IIb-IIIa; read-out: IC50 values for the fibrinogen binding assay αIIbβ3. On the procedure:
as §1

Counter-ions that a name gives are not always drawn. A value given as a limit tells only on which side of the number the result lay.

T1 sequence (P06756 31-889 limits assumed): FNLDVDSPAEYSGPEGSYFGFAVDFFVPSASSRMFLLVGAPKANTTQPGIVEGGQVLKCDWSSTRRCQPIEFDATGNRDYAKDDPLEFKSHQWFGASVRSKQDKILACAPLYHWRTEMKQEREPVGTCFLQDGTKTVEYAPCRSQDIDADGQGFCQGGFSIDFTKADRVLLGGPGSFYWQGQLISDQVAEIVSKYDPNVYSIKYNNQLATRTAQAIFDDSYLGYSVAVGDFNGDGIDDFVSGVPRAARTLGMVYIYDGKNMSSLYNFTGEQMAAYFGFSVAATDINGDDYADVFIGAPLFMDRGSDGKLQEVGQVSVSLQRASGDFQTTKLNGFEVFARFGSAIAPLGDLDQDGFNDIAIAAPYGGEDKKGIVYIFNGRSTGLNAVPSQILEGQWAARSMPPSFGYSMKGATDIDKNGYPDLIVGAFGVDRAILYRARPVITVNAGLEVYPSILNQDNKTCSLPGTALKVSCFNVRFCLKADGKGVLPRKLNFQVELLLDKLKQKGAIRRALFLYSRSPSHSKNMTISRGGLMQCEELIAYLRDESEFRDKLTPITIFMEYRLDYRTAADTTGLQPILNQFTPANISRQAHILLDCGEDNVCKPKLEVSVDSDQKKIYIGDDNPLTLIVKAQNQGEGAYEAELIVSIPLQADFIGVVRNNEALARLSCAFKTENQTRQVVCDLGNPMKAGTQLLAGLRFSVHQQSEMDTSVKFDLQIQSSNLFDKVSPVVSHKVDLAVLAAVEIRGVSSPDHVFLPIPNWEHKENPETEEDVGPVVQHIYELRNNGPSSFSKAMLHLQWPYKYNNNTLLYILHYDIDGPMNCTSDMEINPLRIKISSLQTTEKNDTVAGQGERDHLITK
T1 sequence (P06756 891-1048 partner limits assumed): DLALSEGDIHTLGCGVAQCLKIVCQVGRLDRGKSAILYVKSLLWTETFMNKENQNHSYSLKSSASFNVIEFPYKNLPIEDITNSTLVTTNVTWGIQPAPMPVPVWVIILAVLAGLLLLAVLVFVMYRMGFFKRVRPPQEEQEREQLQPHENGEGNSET
T1 sequence (P05106 27-788): as the sequence (P05106 27-788) above

Regarding `NCCCOc1ccc2ccc(NC(=O)NC[C@H](NS(=O)(=O)c3ccccc3)C(=O)O)c(=O)n2c1` [Compound VII, (S)-3-{3-[7-(3-Amino-propoxy)-4-oxo-4H-quinolizin-3-yl]-ureido}-2-Benzenesulfonylamino-propionic Acid], the figures for the IC50 in test [1] and in test [2] were 92000 nM and 1.8 nM, respectively.
The corresponding values for `CNC(=O)NCCCOc1ccc2cc(C(=O)NC[C@H](NS(=O)(=O)c3ccccc3)C(=O)O)cc(=O)n2c1` [Compound XII, (S)-2-Benzenesulfonylamino-3-({7-[3-(3-methyl-ureido)-propoxy]-4-oxo-4H-quinolizine-2-carbonyl}-amino)-propionic Acid] are 1100 nM and 790 nM.
The corresponding values for `NCCCOc1ccc2cc(C(=O)O)cc(=O)n2c1` [Compound XIII, 7-(3-Amino-propoxy)-4-oxo-4H-quinolizine-2-carboxylic Acid Trifluoroacetic Acid Salt] are > 100000 nM and 5300 nM.
For `NCCCOc1ccc2cc(C(=O)NC[C@H](NS(=O)(=O)c3ccccc3)C(=O)O)cc(=O)n2c1` [Compound XIV, (S)-3-{[7-(3-Amino-propoxy)-4-oxo-4H-quinolizine-2-carbonyl]-amino}-2-benzenesulfonylamino-propionic Acid Trifluoroacetic Acid Salt] the same measures were 17000 nM and 0.38 nM.
Regarding `NCCOc1ccc2cc(C(=O)NC[C@H](NS(=O)(=O)c3ccccc3)C(=O)O)cc(=O)n2c1` [Compound XIX, (S)-3-{[7-(2-Amino-ethoxy)-4-oxo-4H-quinolizine-2-carbonyl]-amino}-2-benzenesulfonylamino-propionic Acid Trifluoroacetic Acid Salt], the IC50 in test [1] amounted to 2000 nM; in test [2] it was 29 nM.
With `O=C(NCc1ccc2cc(C(=O)NC[C@H](NS(=O)(=O)c3ccccc3)C(=O)O)cc(=O)n2c1)OCc1ccccc1` [Compound XLV, (S)-2-Benzenesulfonylamino-3-([(7-benzyloxycarbonylamino-methyl)-4-oxo-4H-quinolizine-2-carbonyl]-amino)-propionic acid], the IC50 came to 910 nM in test [1] and 850 nM in test [2].
For `O=C(NC[C@H](NS(=O)(=O)c1ccccc1)C(=O)O)c1cc(=O)n2cc(CNc3ncccn3)ccc2c1` [Compound XLVI, (S)-2-Benzenesulfonylamino-3-([4-oxo-7-(pyrimidin-2-ylaminomethyl)-4H-quinolizine-2-carbonyl]-amino)-propionic acid trifluoroacetic acid salt] the same measures were 290 nM and 3500 nM.
The corresponding values for `O=C(NCc1ccccc1)NCc1ccc2cc(C(=O)NC[C@H](NS(=O)(=O)c3ccccc3)C(=O)O)cc(=O)n2c1` [Compound XLVII, (S)-2-Benzenesulfonylamino-3-{[7-(3-benzyl-ureidomethyl)-4-oxo-4H-quinolizine-2-carbonyl]-amino}-propionic acid] are 6 nM and 4850 nM.
The corresponding values for `N=C(N)NCc1ccc2cc(C(=O)NC[C@H](NC(=O)OCc3ccccc3)C(=O)O)cc(=O)n2c1` [Compound XLVIII, (S)-2-Benzyloxycarbonylamino-3-[(7-guanidinomethyl-4-oxo-4H-quinolizine-2-carbonyl)-amino]-propionic acid trifluoroacetic acid salt] are 4.9 nM and 2600 nM.
`NCCCOc1ccc2cc(C(=O)NCCC(=O)O)cc(=O)n2c1` [Compound XVI, 3-{[7-(3-Amino-propoxy)-4-oxo-4H-quinolizine-2-carbonyl]-amino}-propionic Acid Trifluoroacetic Acid Salt]: the figures for the half-inhibitory concentration (IC50) in test [1] and in test [2] were > 100000 nM and 1500 nM, respectively.
Turning to `NCCCCOc1ccc2cc(C(=O)NC[C@H](NS(=O)(=O)c3ccccc3)C(=O)O)cc(=O)n2c1` [Compound XVII, (S)-3-{[7-(4-Amino-butoxy)-4-oxo-4H-quinolizine-2-carbonyl]-amino}-2-benzenesulfonylamino-propionic Acid Trifluoroacetic Acid Salt], the results for the IC50 in test [1] and in test [2] were 5100 nM and 0.17 nM, respectively.
The corresponding values for `N=C(N)NCCCCOc1ccc2cc(C(=O)NC[C@H](NS(=O)(=O)c3ccccc3)C(=O)O)cc(=O)n2c1` [Compound XVIII, (S)-2-Benzenesulfonylamino-3-{[7-(4-guanidino-butoxy)-4-oxo-4H-quinolizine-2-carbonyl]-amino}-propionic Acid Hydrochloride] are 2200 nM and 5.3 nM.
Take `N=C(N)NCCCOc1ccc2cc(C(=O)NCC(Nc3ncccn3)C(=O)O)cc(=O)n2c1` (stereo not shown) [Compound XXII, 3-{[7-(3-Guanidino-propoxy)-4-oxo-4H-quinolizine-2-carbonyl]-amino}-2-(pyrimidin-2-ylamino)-propionic Acid Hydrochloride]: the figures for the concentration for half-maximal inhibition (IC50) in test [1] and in test [2] were 540 nM and 45 nM, respectively.
As to `CN([C@@H](CNC(=O)c1cc(=O)n2cc(OCCCN)ccc2c1)C(=O)O)S(=O)(=O)c1ccccc1` [Compound XXIII, (S)-3-{[7-(3-Amino-propoxy)-4-oxo-4H-quinolizine-2-carbonyl]-amino}-2-(benzenesulfonyl-methyl-amino)-propionic Acid Trifluoroacetic Acid Salt], the IC50 is > 100000 nM in test [1] and 820 nM in test [2].
The corresponding values for `CN([C@@H](CNC(=O)c1cc(=O)n2cc(OCCCNC(=N)N)ccc2c1)C(=O)O)S(=O)(=O)c1ccccc1` [Compound XXIV, (S)-2-(Benzenesulfonyl-methyl-amino)-3-{[7-(3-guanidino-propoxy)-4-oxo-4H-quinolizine-2-carbonyl]-amino}-propionic Acid Hydrochloride] are 58000 nM and 1300 nM.
`O=C(NC[C@H](NS(=O)(=O)c1ccccc1)C(=O)O)c1cc(=O)n2cc(OCCCNc3ncccn3)ccc2c1` [Compound XXV, (S)-2-Benzenesulfonylamino-3-({4-oxo-7-[3-(pyrimidin-2-ylamino)-propoxy]-4H-quinolizine-2-carbonyl}-amino)-propionic Acid]: the IC50 worked out at 15000 nM in test [1] and 1250 nM in test [2].
The corresponding values for `NCC1CCc2cc(C(=O)NCC(NS(=O)(=O)c3ccccc3)C(=O)O)cc(=O)n2C1` [Compound XXVIII, (2S, 7R) and (2S, 7S)-3-[(7-Aminomethyl-4-oxo-6,7,8,9-tetrahydro-4H-quinolizine-2-carbonyl)-amino]-2-benzenesulfonylamino-propionic Acid Trifluoroacetic Acid Salt] are 370 nM and 100 nM.
The corresponding values for `NCCCOc1ccn2c(=O)cc(C(=O)NC[C@H](NS(=O)(=O)c3ccccc3)C(=O)O)cc2c1` [Compound XXX, (S)-3-{[8-(3-Amino-propoxy)-4-oxo-4H-quinolizine-2-carbonyl]-amino}-2-benzenesulfonylamino-propionic Acid Trifluoroacetic Acid Salt] are 17000 nM and 110 nM.
For `N=C(N)NCCCOc1ccn2c(=O)cc(C(=O)NC[C@H](NS(=O)(=O)c3ccccc3)C(=O)O)cc2c1` [Compound XXXI, (S)-2-Benzenesulfonylamino-3-{[8-(3-guanidino-propoxy)-4-oxo-4H-quinolizine-2-carbonyl]-amino)-propionic Acid Hydrochloride] the same measures were 9400 nM and 24 nM.
For `NCCCCOc1ccn2c(=O)cc(C(=O)NC[C@H](NS(=O)(=O)c3ccccc3)C(=O)O)cc2c1` [Compound XXXII, (S)-3-{[8-(4-Amino-butoxy)-4-oxo-4H-quinolizine-2-carbonyl]-amino}-2-benzenesulfonylamino-propionic Acid Trifluoroacetic Acid Salt], the IC50 was 12000 nM in test [1] and 5.5 nM in test [2].
Consider `N=C(N)NCCCCOc1ccn2c(=O)cc(C(=O)NC[C@H](NS(=O)(=O)c3ccccc3)C(=O)O)cc2c1` [Compound XXXIII, (S)-2-Benzenesulfonylamino-3-{[8-(4-guanidino-butoxy)-4-oxo-4H-quinolizine-2-carbonyl]-amino}-propionic Acid Hydrochloride], for which the values for the IC50 in test [1] and in test [2] were 15000 nM and 44 nM, respectively.
The corresponding values for `NCCCCCOc1ccn2c(=O)cc(C(=O)NC[C@H](NS(=O)(=O)c3ccccc3)C(=O)O)cc2c1` [Compound XXXIV, (S)-3-{[8-(S-Amino-pentyloxy)-4-oxo-4H-quinolizine-2-carbonyl]-amino}-2-benzenesulfonylamino-propionic Acid Trifluoroacetic Acid Salt] are 17000 nM and 16 nM.
For `N=C(N)NCCCCCOc1ccn2c(=O)cc(C(=O)NC[C@H](NS(=O)(=O)c3ccccc3)C(=O)O)cc2c1` [Compound XXXV, (S)2-Benzenesulfonylamino-3-{[8-(5-guanidino-pentyloxy)-4-oxo-4H-quinolizine-2-carbonyl]-amino}propionic Acid Hydrochloride] the same measures were 15000 nM and 1500 nM.
